This series in a line: solvent given as SMILES.

Each structure is given as a SMILES string.

Regarding `Cc1ccc(-c2oc3cccc4c5c(-c6ccc(C)cc6)c(=N)oc6cccc(c2c34)c65)cc1`, under “in ClC(Cl)Cl”, the absorption maximum was 400 nm.

Compound `CCCCCCc1ccc2c3c(ccc2c1)O[B-](F)(F)[N+](c1ccc([N+]2=Cc4c(ccc5cc(CCCCCC)ccc45)O[B-]2(F)F)cc1)=C3` registered an absorption maximum (in C1CCOC1) of 425 nm, an absorption maximum (in CC#N) of 422 nm, an absorption maximum (in Cc1ccccc1) of 436 nm and an absorption maximum (in ClCCl) of 430 nm.

For `CCOC(=O)c1ccccc1-c1c2ccc(=[N+](CC)CC)cc-2oc2c1oc1cc(N)ccc12`, the absorption maximum (in CCO) turned out to be 590 nm, the absorption maximum (in ClCCl) worked out at 587 nm and the absorption maximum (in O) is 588 nm.

`CCOC(=O)/C=C/c1cc2ccc(-c3cn(Cc4ccccc4)nn3)cc2oc1=O` showed an absorption maximum (in CCO) of 358 nm.

With `Cc1csc2[n+]1[B-](F)(F)OC(c1ccc(N(C)C)cc1)=N2`, the absorption maximum is, setting by setting: (in C1CCOC1) 405 nm; (in CC#N) 403 nm; (in Cc1ccccc1) 407 nm; (in ClCCl) 406 nm.

For the compound `COc1ccc(/C=C/c2nc(-c3ccc([N+](=O)[O-])cc3)[nH]c2/C=C/c2ccc(OC)cc2)cc1`, the absorption maximum (in ClCCl) came to 455 nm.

Take `OB(O)c1ccc(-c2ccc(N(c3ccccc3)c3ccccc3)cc2)cc1`: the absorption maximum is, setting by setting: (in C1CCCCC1) 332.8 nm; (in C1CCOC1) 331 nm; (in CCO) 329.6 nm; (in CCOCC) 330 nm; (in CO) 326 nm.

Compound `N#Cc1c(N2CCCCC2)cc(-c2ccc3ccccc3c2)c2c1C(=O)c1ccccc1-2` yielded an absorption maximum (in C1CCOC1) of 346 nm.

Regarding `Cc1ccc(-n2c(-c3ccccc3N)nc3c4ccccc4c4ccccc4c32)cc1`, for the setting “in Cc1ccccc1”, the absorption maximum is 311 nm.

Compound `CC(=O)Nc1ccc2c(c1)c(=O)c1cc(NC(C)=O)ccc1n2CCCCCC(=O)O` yielded an absorption maximum (in O) of 430 nm.

Regarding `CC(C)(C)NC(=O)c1cc2ccc3cccc4ccc(c1C(=O)NC(C)(C)C)c2c34`, under “in ClC(Cl)Cl”, the absorption maximum was 385 nm.

Take `O=P(c1ccccc1)(c1ccccc1)c1ccc(-n2c(-c3ccccc3P(=O)(c3ccccc3)c3ccccc3)nc3ccccc32)cc1`: for the setting “in ClCCl”, the absorption maximum was 300 nm.

Regarding `COc1cc2cc(-c3ccc(C(=O)OCOC(C)=O)cc3C(=O)OCOC(C)=O)oc2cc1N1CCOCCOCCN(c2cc3oc(-c4ccc(C(=O)OCOC(C)=O)cc4C(=O)OCOC(C)=O)cc3cc2OC)CCOCCOCC1`, the absorption maximum (in O) came to 350 nm.

These data come from the Deep4Chem optical property database.
